{
  "source": "paper PMC4394749",
  "about": "(Journal of medicinal chemistry, 2015)",
  "key": {"KB-VIN cells": {"system": "KB-VIN cells", "experiment": "Cell cycle analysis by flow cytometry", "assay_type": "cell-based, human", "details": "6 or 24 h, PXL 3 µM, 4 0.5 µM, 8 2 µM"}, "[1]": {"system": "KB (epidermoid carcinoma of the nasopharynx)", "details": "read-out: IC50 KB; SRB; compound marked 'See ref [15]'; cited from earlier work"}, "[2]": {"system": "MDA-MB-231 (triple-negative breast cancer)", "details": "read-out: IC50 MDA-MB-231; SRB; compound marked 'See ref [15]'; cited from earlier work"}, "PC-3 cells [3]": {"system": "PC-3 cells", "experiment": "Cell cycle analysis by flow cytometry", "assay_type": "cell-based, human", "details": "2 µM, 24 h"}, "[4]": {"system": "KB-VIN (P-gp-overexpressing MDR subline of KB)", "details": "read-out: IC50 KB-VIN; SRB; compound marked 'See ref [15]'; cited from earlier work"}, "[5]": {"system": "HCT-8 (human colon adenocarcinoma)", "details": "read-out: IC50 HCT-8; SRB; compound marked 'See ref [15]'; cited from earlier work"}, "[6]": {"target": "ZR-75-1 (estrogen-receptor-positive, HER2-positive breast cancer)", "details": "read-out: IC50 ZR-75-1; SRB; compound marked 'See ref [15]'; cited from earlier work"}, "KB cells": {"system": "KB cells", "experiment": "Cell cycle analysis by flow cytometry", "assay_type": "cell-based, human", "details": "6 or 24 h, PXL 0.02 µM, 4 0.5 µM, 8 2 µM"}, "[7]": {"system": "HepG2 (hepatocellular carcinoma)", "details": "read-out: IC50 Hep-G2; SRB; compound marked 'See ref [15]'; cited from earlier work"}, "[8]": {"target": "MCF-7 (estrogen-receptor-positive, HER2-negative breast cancer)", "details": "read-out: IC50 MCF-7; SRB; compound marked 'See ref [15]'; cited from earlier work"}, "PC-3 (prostate cancer)": {"system": "PC-3 (prostate cancer)", "details": "read-out: IC50 PC-3; SRB; compound marked 'See ref [15]'; cited from earlier work"}, "A549 (lung carcinoma)": {"system": "A549 (lung carcinoma)", "details": "read-out: IC50 A549; SRB; compound marked 'See ref [15]'; cited from earlier work"}, "[9]": {"system": "SK-BR-3 (HER2-overexpressing breast cancer)", "details": "read-out: IC50 SK-BR3; SRB; compound marked 'See ref [15]'; cited from earlier work"}, "PC-3 cells [10]": {"system": "PC-3 cells", "experiment": "Immunofluorescence staining of microtubules in PC-3 cells", "assay_type": "cell-based, human", "details": "PC-3, 24 h"}},
  "data": [
    {"smiles": "CCC1=C(O)c2c(oc(-c3csc4ccccc34)cc2=O)C(CC)(CC)C1=O", "note": "[Compound 4, 2-(benzo[b]thiophene-3′-yl)-6,8,8-triethyldesmosdumotin B]", "values": [
      {"measurement": "effect on cell cycle distribution", "setting": "KB-VIN cells", "result": "Accumulation of G2/M phase as well as S phase cells"},
      {"measurement": "IC50", "setting": "[1]", "result": 80, "unit": "nM"},
      {"measurement": "IC50", "setting": "[2]", "result": 700, "unit": "nM"},
      {"measurement": "effect on cell cycle distribution", "setting": "PC-3 cells [3]", "result": "efficiently induced accumulation of G2/M phase cells"},
      {"measurement": "IC50", "setting": "[4]", "result": 70, "unit": "nM"},
      {"measurement": "IC50", "setting": "[5]", "result": 130, "unit": "nM"},
      {"measurement": "IC50", "setting": "[6]", "result": 850, "unit": "nM"},
      {"measurement": "effect on cell cycle distribution", "setting": "KB cells", "result": "Accumulation of G2/M phase as well as S phase cells"},
      {"measurement": "IC50", "setting": "[7]", "result": 130, "unit": "nM"},
      {"measurement": "IC50", "setting": "[8]", "result": 720, "unit": "nM"},
      {"measurement": "IC50", "setting": "PC-3 (prostate cancer)", "result": 160, "unit": "nM"},
      {"measurement": "IC50", "setting": "A549 (lung carcinoma)", "result": 60, "unit": "nM"},
      {"measurement": "IC50", "setting": "[9]", "result": 500, "unit": "nM"},
      {"measurement": "microtubule morphology", "setting": "PC-3 cells [10]; equitoxic concentrations: 0.2 µM 4, 0.2 µM CA-4, 5 µM VIN, 0.2 µM PXL", "result": "induced depolymerization of cytosolic microtubules as well monopolar (arrow heads) or multipolar spindle formations in the G2/M-phase"},
      {"measurement": "dose-dependent effects on microtubule morphology", "setting": "PC-3 cells [10]; compounds 0.2, 2 or 20 µM, CA-4 0.002 or 20 µM", "result": "Dose-dependent disruption of both interphase microtubules and spindles"}
    ]}
  ]
}
